Legend:
[1] = system: abdominal writhing induced by acetic acid; assay: Abdominal writhing assay induced by acetic acid; assay type: in vivo; details: oral, mice, acetic acid 0.1N i.p. after 1 hour, writhings counted during 20 minutes
Method: In order to evaluate the peripheral analgesic activity of the compounds, an abdominal writhing assay induced by acetic acid (Table 6) was carried out. In this assay, we could infer that compound ID has an important analgesic activity, inhibiting abdominal writhing by 66%. […] The analgesic activity may be related to the ability of these compounds to inhibit the cytokine TNFα, since it is known that this would be one of the mechanisms that explain the analgesia of molecules such as thalidomide.
The antinociceptive profile was evaluated through the abdominal writhing assay induced by acetic acid in mice. In this assay, Swiss mice from both genders were used, weighing from 21 to 28 grams, fasted for a time period of about 8 hours. The test substance was administered orally and had, as a carrier, 5% gum arabic. After 1 hour, the administration of acetic acid 0.1N (0.1 mL/10 g weight) was performed in the peritoneal cavity of the animals. Ten minutes after the injection of acetic acid, writhings were counted during 20 minutes.

[2] = system: Salmonella typhimurium TA102; assay: AMES test, mutagenic evaluation in Salmonella typhimurium TA102 strain with/without metabolic activation (S9); assay type: cell-based
Method: (§1) The procedure was firstly developed by (MARON, D. M. and AMES, B. N. Mut. Res. v. 113, pp. 173-215, 1983)
(§2) For this assay, Salmonella typhimurium TA100 and TA102 strains from the mutagenicity laboratory of the “Faculdade de Ciências Farmacêuticas—UNESP Araraquara” were used. Such strains have the following characteristics: (AMES, 1983)
(§3) The positive controls are mutagenic compounds specific for each strain and test condition, with 25 μL/plate of sodium azide (1.25 μg/plate) and 100 μL of mitomycin (0.5 μg/plate) being the controls for TA100 and TA102, respectively, in the absence of metabolic activation. For assays with metabolic activation, the positive control for TA100 is 50 μL 2-antramine (1.25 μg/plate) and for TA102 it is 50 μL 2-aminofluorene (1.25 μg/plate).
(§4) The preincubation method was used.
(§5) In laminar flow, Salmonella typhimurium (TA100 and TA 102) strains were inoculated individually with a platinum loop, in the respective nutrient broths and maintained at 37° C., under constant stirring (160 rpm) during 14 hours, in order to achieve a density of 1 to 2×10^9 bacteria/mL.
(§6) Different concentrations of the compounds were added into 100 μL of 0.2M phosphate buffer pH 7.4 (or 500 μL of the mixture S9 in metabolic activation assays) and incubated for 20-30 minutes at 37° C. Solutions containing the compounds had DMSO as the solvent. Thereafter, 2 mL of top agar supplemented with traces of histidine and biotin was added, homogenized and plated in glycosylated minimum medium. After solidification of the top agar, the plates were incubated for 48 hours at a 37° C. Then, the counting of the number of revertant colonies per plate was performed. All tested concentrations, positive and negative controls were run in triplicate.
(§7) After 48 hours, the revertant colonies were counted manually, and the protoCOL Colony Counter Version 3.15.630 (1998-2001) SYNBIOSIS LTD system was used for the positive control.
(§8) The final data obtained from the assay was analyzed using the statistical software Salanal (Salmonella Assay Analysis) version 1.0 from the Research Triangle Institute, RTP, North Carolina, USA. Such software allows the dose-response effect to be evaluated by means of analysis of variance (ANOVA-test F) computations between the measurement of the number of revertants at the different tested concentrations (doses) and the negative control, followed by a linear regression. The software model chosen for analyzing the data was Bernstein's (BERNSTEIN, L. et al. Mutat. Res. v. 97, p. 267-281, 1982). The slope of the straight line from the linear portion of the dose-response curve is also provided by this software and corresponds to the number of revertants induced per measurement unit of the analyzed sample.
(§9) From the results, the mutagenicity ratio (MR) was computed for each analyzed dose from each compound. MR is given by the following equation:
(§10) MR=average number of revertants per test plate (spontaneous+induced revertants) […] average number of revertants per plate of the negative control (spontaneous revertants)
(§11) The spontaneous growing means that the number of revertants which developed on the plate, regardless of being induced or not, wherein values higher or equal to 2 are considered as a positive response (VALENT, G. V. et al. Env. Toxicol. Water Quality. v. 8, p. 371-381, 1993).
(§12) The mutagenicity test with metabolic activation system was performed with a microsomal fraction S9 (S9 mix) prepared from a liver homogenizate from Sprague Dawley rats, previously treated with Aroclor 1254, acquired in the freeze-dried form.
(§13) The procedure for this assay is the same, however, instead of the buffer, 500 μL of the S9 mixture should be added.
(§14) The S9 mixture has a viability of 4 hours from preparation when put on ice. The plates are then incubated for 48 hours at 37° C. After the required time has elapsed, the counting of the revertant colonies was carried out. All tested concentrations, positive and negative controls were run in triplicate.

[3] = system: Salmonella typhimurium TA100; assay: AMES test, mutagenic evaluation in Salmonella typhimurium TA100 strain with/without metabolic activation (S9); assay type: cell-based
Method: as §1, §2, §3, §4, §5, §6, §7, §8, §9, §10, §11, §12, §13, §14

Compound: Nc1ccc(S(=O)(=O)NO)cc1 [Compound IIA, 4-amino-N-hydroxybenzenesulphonamide]
- Average (abdominal writhings) [1]: 30.4
- mutagenicity ratio (MR) ([2]; TA 102, +S9, 0.98 μmol/plate): 1.03
- number of revertants per plate ([2]; TA 102, +S9, 0.98 μmol/plate): 385 ± 33.1 revertants/plate
- mutagenicity ratio (MR) ([2]; TA 102, +S9, 1.96 μmol/plate): 0.87
- number of revertants per plate ([2]; TA 102, +S9, 1.96 μmol/plate): 323 ± 5.54 revertants/plate
- mutagenicity ratio (MR) ([2]; TA 102, +S9, 3.92 μmol/plate): 1.13
- number of revertants per plate ([2]; TA 102, +S9, 3.92 μmol/plate): 423.7 ± 22 revertants/plate
- mutagenicity ratio (MR) ([2]; TA 102, +S9, 7.85 μmol/plate): 1.03
- number of revertants per plate ([2]; TA 102, +S9, 7.85 μmol/plate): 387 ± 14.4 revertants/plate
- mutagenicity ratio (MR) ([2]; TA 102, +S9, 15.7 μmol/plate): 0.8
- number of revertants per plate ([2]; TA 102, +S9, 15.7 μmol/plate): 300 ± 4.9 revertants/plate
- mutagenicity ratio (MR) ([2]; TA 102, −S9, 0.98 μmol/plate): 1.12
- number of revertants per plate ([2]; TA 102, −S9, 0.98 μmol/plate): 222 ± 12 revertants/plate
- mutagenicity ratio (MR) ([2]; TA 102, −S9, 1.96 μmol/plate): 1.22
- number of revertants per plate ([2]; TA 102, −S9, 1.96 μmol/plate): 241 ± 13 revertants/plate
- mutagenicity ratio (MR) ([2]; TA 102, −S9, 3.92 μmol/plate): 1.27
- number of revertants per plate ([2]; TA 102, −S9, 3.92 μmol/plate): 251 ± 19.2 revertants/plate
- mutagenicity ratio (MR) ([2]; TA 102, −S9, 7.85 μmol/plate): 1.17
- number of revertants per plate ([2]; TA 102, −S9, 7.85 μmol/plate): 232 ± 13.1 revertants/plate
- mutagenicity ratio (MR) ([2]; TA 102, −S9, 15.7 μmol/plate): 1.06
- number of revertants per plate ([2]; TA 102, −S9, 15.7 μmol/plate): 210 ± 23 revertants/plate
- mutagenicity ratio (MR) ([3]; TA 100, +S9, 0.98 μmol/plate): 1.24
- number of revertants per plate ([3]; TA 100, +S9, 0.98 μmol/plate): 160 ± 12.4 revertants/plate
- mutagenicity ratio (MR) ([3]; TA 100, +S9, 1.96 μmol/plate): 1.36
- number of revertants per plate ([3]; TA 100, +S9, 1.96 μmol/plate): 175.7 ± 2 revertants/plate
- mutagenicity ratio (MR) ([3]; TA 100, +S9, 3.92 μmol/plate): 1.43
- number of revertants per plate ([3]; TA 100, +S9, 3.92 μmol/plate): 185.3 ± 15 revertants/plate
- mutagenicity ratio (MR) ([3]; TA 100, +S9, 7.85 μmol/plate): 1.59
- number of revertants per plate ([3]; TA 100, +S9, 7.85 μmol/plate): 206 ± 13.6 revertants/plate
- mutagenicity ratio (MR) ([3]; TA 100, +S9, 15.7 μmol/plate): 2.74
- number of revertants per plate ([3]; TA 100, +S9, 15.7 μmol/plate): 354 ± 6.5 revertants/plate
- mutagenicity ratio (MR) ([3]; TA 100, −S9, 0.98 μmol/plate): 0.99
- number of revertants per plate ([3]; TA 100, −S9, 0.98 μmol/plate): 146.3 ± 5.1 revertants/plate
- mutagenicity ratio (MR) ([3]; TA 100, −S9, 1.96 μmol/plate): 1.23
- number of revertants per plate ([3]; TA 100, −S9, 1.96 μmol/plate): 180.5 ± 7.8 revertants/plate
- mutagenicity ratio (MR) ([3]; TA 100, −S9, 3.92 μmol/plate): 1.22
- number of revertants per plate ([3]; TA 100, −S9, 3.92 μmol/plate): 179 ± 11.3 revertants/plate
- mutagenicity ratio (MR) ([3]; TA 100, −S9, 7.85 μmol/plate): 1.17
- number of revertants per plate ([3]; TA 100, −S9, 7.85 μmol/plate): 172.7 ± 12.5 revertants/plate
- mutagenicity ratio (MR) ([3]; TA 100, −S9, 15.7 μmol/plate): 1.19
- number of revertants per plate ([3]; TA 100, −S9, 15.7 μmol/plate): 175 ± 2.8 revertants/plate
- concentration above which the number of revertants is reduced by cell toxicity ([3]; with metabolic activation): Above 15.7 μmol/plate

Compound: O=C1c2ccccc2C(=O)N1CCO[N+](=O)[O-] [IB, 2-(1,3-dioxo-1,3-dihydro-2H-isoindol-2-yl)ethyl nitrate]
- Average (abdominal writhings) [1]: 39.2
- Inhibition % (abdominal writhing) [1]: 23.22%
- mutagenicity ratio (MR) ([2]; TA 102, +S9, 0.01 μmol/plate): 1.13
- number of revertants per plate ([2]; TA 102, +S9, 0.01 μmol/plate): 249 ± 11.7 revertants/plate
- mutagenicity ratio (MR) ([2]; TA 102, +S9, 0.021 μmol/plate): 1.22
- number of revertants per plate ([2]; TA 102, +S9, 0.021 μmol/plate): 269 ± 10.6 revertants/plate
- mutagenicity ratio (MR) ([2]; TA 102, +S9, 0.042 μmol/plate): 1.09
- number of revertants per plate ([2]; TA 102, +S9, 0.042 μmol/plate): 239 ± 22.5 revertants/plate
- mutagenicity ratio (MR) ([2]; TA 102, +S9, 0.085 μmol/plate): 1.12
- number of revertants per plate ([2]; TA 102, +S9, 0.085 μmol/plate): 247 ± 21.4 revertants/plate
- mutagenicity ratio (MR) ([2]; TA 102, +S9, 0.17 μmol/plate): 0.97
- number of revertants per plate ([2]; TA 102, +S9, 0.17 μmol/plate): 214 ± 32 revertants/plate
- mutagenicity ratio (MR) ([2]; TA 102, −S9, 0.01 μmol/plate): 1.22
- number of revertants per plate ([2]; TA 102, −S9, 0.01 μmol/plate): 394 ± 30 revertants/plate
- mutagenicity ratio (MR) ([2]; TA 102, −S9, 0.021 μmol/plate): 1.55
- number of revertants per plate ([2]; TA 102, −S9, 0.021 μmol/plate): 452 ± 23 revertants/plate
- mutagenicity ratio (MR) ([2]; TA 102, −S9, 0.042 μmol/plate): 1.25
- number of revertants per plate ([2]; TA 102, −S9, 0.042 μmol/plate): 502 ± 14 revertants/plate
- mutagenicity ratio (MR) ([2]; TA 102, −S9, 0.085 μmol/plate): 1.34
- number of revertants per plate ([2]; TA 102, −S9, 0.085 μmol/plate): 405 ± 24 revertants/plate
- mutagenicity ratio (MR) ([2]; TA 102, −S9, 0.17 μmol/plate): 1.54
- number of revertants per plate ([2]; TA 102, −S9, 0.17 μmol/plate): 433 ± 35.4 revertants/plate
- mutagenicity ratio (MR) ([3]; TA 100, +S9, 0.01 μmol/plate): 3.4
- number of revertants per plate ([3]; TA 100, +S9, 0.01 μmol/plate): 354 ± 6.9 revertants/plate
- mutagenicity ratio (MR) ([3]; TA 100, +S9, 0.021 μmol/plate): 3.22
- number of revertants per plate ([3]; TA 100, +S9, 0.021 μmol/plate): 335 ± 10.8 revertants/plate
- mutagenicity ratio (MR) ([3]; TA 100, +S9, 0.042 μmol/plate): 3.8
- number of revertants per plate ([3]; TA 100, +S9, 0.042 μmol/plate): 397 ± 25.9 revertants/plate
- mutagenicity ratio (MR) ([3]; TA 100, +S9, 0.085 μmol/plate): 3.8
- number of revertants per plate ([3]; TA 100, +S9, 0.085 μmol/plate): 395 ± 40.2 revertants/plate
- mutagenicity ratio (MR) ([3]; TA 100, +S9, 0.17 μmol/plate): 2.5
- number of revertants per plate ([3]; TA 100, +S9, 0.17 μmol/plate): 261 ± 11 revertants/plate
- mutagenicity ratio (MR) ([3]; TA 100, −S9, 0.01 μmol/plate): 1.49
- number of revertants per plate ([3]; TA 100, −S9, 0.01 μmol/plate): 171 ± 48.9 revertants/plate
- mutagenicity ratio (MR) ([3]; TA 100, −S9, 0.021 μmol/plate): 1.74
- number of revertants per plate ([3]; TA 100, −S9, 0.021 μmol/plate): 200 ± 23.3 revertants/plate
- mutagenicity ratio (MR) ([3]; TA 100, −S9, 0.042 μmol/plate): 1.94
- number of revertants per plate ([3]; TA 100, −S9, 0.042 μmol/plate): 223 ± 45.04 revertants/plate
- mutagenicity ratio (MR) ([3]; TA 100, −S9, 0.085 μmol/plate): 1.8
- number of revertants per plate ([3]; TA 100, −S9, 0.085 μmol/plate): 206 ± 30.2 revertants/plate
- mutagenicity ratio (MR) ([3]; TA 100, −S9, 0.17 μmol/plate): 1.43
- number of revertants per plate ([3]; TA 100, −S9, 0.17 μmol/plate): 165 ± 11.1 revertants/plate
